Data as given in US10716783B2, “Prolylhydroxylase/ATF4 inhibitors and methods of use for treating neural cell injury or death and conditions resulting therefrom” (CORNELL UNIVERSITY, priority 2013, dated 2020).
Entries after “also recorded” stand apart in the source; their conditions may differ.

Key:
[1] = test system: intracerebral hemorrhage (collagenase into the striatum); experiment: Collagenase-induced ICH in mice; format: in vivo; conditions: for Corner task (spatial neglect): 30 mg/kg i.p. 2 h post collagenase then daily for seven days; for Tape removal task (sensory neglect): 1 and 3 days post ICH; for Neuronal degeneration (Fluoro-jade staining), striatum hematoma and perihematomal area: day 7
Method: FIGS. 4A-4N. Adaptoquin delivered post-injury reduces cell death and enhances functional recovery post injury in mice and rats. Adaptoquin's effects in mice are not associated with global shifts of iron out of the brain. FIG. 4A: Experimental design for schedule of delivery of adaptaquin post-ICH. 30 mg/kg was delivered post-injury and then daily for seven days during which behavioral analysis was done. Mice were sacrificed at day 7 for qPCR and Fluoro-jade staining. […] FIG. 4J: Protocol for adaptoquin treatment of rats with ICH. ICH is modeled by autologous blood infusion and not collagenase in these studies. Behavior is tracked by a single pellet reaching task out to 28 days, but the schedule of infusion is similar to what is used in mice-2 hrs post blood infusion and then daily out to seven days. Behavior is monitored before, from 9-11 days and from 25-28 days. […] FIG. 4L: Protocol for evaluating the total concentrations of iron and zinc in brain following ICH in vehicle and adaptoquin treated mice. FIGS. 4M, 4N: Pseudocolored sections of collagenase induced ICH in mice after 7 days. […] These studies are consistent with the notion that adaptoquin works by inhibiting a specific metalloenzyme rather than global movement of metal ions. To determine whether HIF PHD inhibition after ICH can improve behavioral outcomes, 30 mg/kg of adaptoquin was delivered to the peritoneum of mice two hours following the injection of collagenase into the striatum. An identical dose of adaptoquin (30 mg/kg) was given daily for seven days. […] These molecular deletion and pharmacological inhibition studies supported HIF PHDs as targets for therapy post ICH, but left unanswered the mechanism by which adaptoquin could abrogate neuronal death. A first prediction of the model was that adaptoquin enhances functional recovery without affecting total brain iron levels. Total iron levels were monitored in brain sections from vehicle- and adaptoquin-treated (30 mg/kg) mice seven days following ICH.

[2] = test system: primary neurons; experiment: Death induced by forced ATF4 expression in primary neurons (MTT, LIVE/DEAD); format: cell-based; conditions: concentrations protective in the oxidative stress model
Source text: (§1) FIGS. 6A-6I. […] Expression of ATF4 was forced into primary neurons, which induces death of these neurons by MTT assay (FIG. 6D) or LIVE/DEAD staining, Green is live, Red is dead (FIG. 6E).

[3] = test system: immortalized hippocampal neuroblasts (HT22 cells); experiment: Hemin-induced toxicity in hippocampal neuroblasts (MTT); format: cell-based
Source text: FIGS. 1A-1L: Structurally diverse HIF PHD inhibitors stabilize HIF-1 and abrogate toxicity induced by hemin, a byproduct of blood breakdown, in cortical neurons hippocampal neuroblasts and striatal neuroblasts (not shown).
Secondary injury from ICH has been attributed to hemin, a breakdown product of hemoglobin (from lysed red blood cells). To investigate the mechanisms of hemin toxicity to neurons in vitro, this experiment exposed primary cortical neurons, immortalized hippocampal neuroblasts (HT22 cells), and immortalized striatal neuroblasts (Q7 cells) to hemin for 24 hours. As expected, a dose dependent loss in viability as measured by MTT reduction or LIVE/DEAD assay in all three cell types was observed. […] To examine whether iron-dependent HIF PHD enzymes can be modulated to protect neurons from hemin-induced toxicity, this experiment examined structurally diverse inhibitors of the HIF PHDs: desferoxamine, cyclopirox, and dihydroxybenzoic acid. […] To test this notion further using a chemical biological approach, the protective effects of cyclopirox, a HIF PHD inhibitor, and a cyclopirox analog with no PHD inhibitory activity but with similar metal binding affinity to cyclopirox were compared. As expected, only the cyclopirox analog with PHD inhibitory activity was neuroprotective. […]

[4] = test system: ATF4; experiment: ATF4 dependent gene expression under oxidative stress in neurons (microarray, qPCR, promoter occupancy); format: cell-based
Source text: FIGS. 5A-5G. […] Because adaptoquin is a HIF PHD inhibitor that appears to work independent of HIF transcription factors, and because hemin induced death involves oxidative stress, the effect of adaptoquin on oxidative glutamate toxicity was examined. This form of toxicity is observed in primary cortical neurons from E17 rat embryos (2 DIV) and involves glutamate mediated inhibition of the amino acid cystine via its plasma membrane transporter. […] Accordingly, the optimal concentration of adaptoquin in protecting neurons was first determined and found to be about 1 micromolar. […] To determine the mechanism of adaptoquin, transcriptomic experiments were performed using non-protective and protective concentrations of drug harvesting RNA just prior to the time the cell's becoming insensitive to adaptoquin (16 hrs), as provided in FIG. 5C.
as §1
To probe the mechanism of adaptoquin-induced neuroprotection, the study moved its attention to a well established model of oxidative stress in neurons induced by glutamate. Like hemin induced toxicity, oxidative glutamate toxicity is abrogated by forced expression of GPX4 (Alim et al., unpublished observations). However, oxidative glutamate toxicity has a much longer window before cells are committed to die (eighteen hours), facilitating analysis of primary events involved in cell death and protection. A detailed dose response and therapeutic window study was performed with adaptoquin in mouse cortical neurons exposed to glutamate or the glutamate analog, homocysteate. […] To probe the mechanism of this potent, delayed protection, a microarray transcriptomics study was performed using RNA from neuronal cultures that had been exposed to glutamate (or HCA) for 16 hours with vehicle, as well as non-protective (100 nM) and protective doses of adaptoquin (1 μM). […]

With `Oc1cccnc1NC(c1ccc(Cl)cc1)c1ccc2cccnc2c1O` (centres unmarked) [adaptoquin] the “Corner task (spatial neglect)” value [1] was “significantly normalized”, the “Corner task (spatial neglect)” value ([1]; listed as Adaptoquin) was “corrects behavioral deficits” and the “Tape removal task (sensory neglect)” value ([1]; 30 mg/kg i.p.) was “significant improvement”. The “Tape removal task (sensory neglect)” value ([1]; 30 mg/kg i.p., listed as Adaptoquin) was “corrects behavioral deficits”, the Hematoma size ([1]; 30 mg/kg i.p., at 24 hours) was “no difference” and the Edema ([1]; 30 mg/kg i.p., at three days) was “did decrease edema”. For the same compound, the “Neuronal degeneration (Fluoro-jade staining), striatum hematoma and perihematomal area” value ([1]; 30 mg/kg i.p.) was “reduction in the number of degenerating neurons”, the “Neuronal degeneration (Fluoro-jade staining), striatum hematoma and perihematomal area” value ([1]; 30 mg/kg i.p., listed as Apatoquin) was “significantly reduces neuronal degeneration” and the p21 expression ([1]; 30 mg/kg post-ICH then daily for seven days, qPCR day 7) was “induced p21 expression”. The “Death induced by oxidative stress and ATF4 forced expression” value [2] was “mitigates death induced by oxidative stress and ATF4 forced expression”, the “Hemin-induced death / protection after HIF-1α or HIF-2α reduction (shRNA)” value [3] was “prevents hemin induced death independent of HIF-1 and HIF-2” and the “Oxidative stress and ATF4 dependent induction of Trb3” value ([4]; 1 micromolar) was “abrogates oxidative stress and ATF4 dependent induction of Trb3”. The “ATF4 occupancy at the promoter of Trib3” value ([4]; oxidative stress) was “abrogates oxidative stress induced ATF4 occupancy” and the “Expression of ATF4 dependent genes (Trib3, MTHFR2, SCL7A11, STC2)” value ([4]; protective doses (1 μM), quantitative PCR / microarray) was “significantly reduces expression of ATF4 dependent genes; also recorded: downregulation of ATF4 dependent genes”.
